Patent publication US20240116942A1, “SELECTIVE CDK 4/6 INHIBITOR CANCER THERAPEUTICS” (LUNELLA BIOTECH, INC., priority 2020, published 2024)

System: MCF7 cells
Test: mammosphere assay
Assay type: cell-based
Conditions: compared to Trilaciclib
Source text: Moreover, CSCs are strikingly resilient and highly resistant to cellular stress, which allows them to undergo anchorage-independent growth, especially under conditions of low-attachment. As a consequence, they form 3D spheroids, which retain the properties of CSCs and stem cell progenitors. In contrast, when subjected to growth in suspension, most “bulk” cancer cells die, via anoikis—a specialized type of apoptosis. […] Therefore, 3D spheroid formation is a functional read-out for stemness in epithelial cancer cells and allows one to enrich for a population of epithelioid cells with a stem-like phenotype. These 3D spheroids are also known as mammospheres when they are prepared using breast cancer cells, such as MCF7, among others.

SMILES | inhibition of MCF7 cells in the mammosphere assay
CCCCCCCCCCCCCC(=O)N1CCN(c2ccc(Nc3ncc4cc5n(c4n3)C3(CCCCC3)CNC5=O)nc2)CC1 [formula [2]] | remarkably improved inhibition
CCCCCCCCCCCCCCCC(=O)CCN1CCN(c2ccc(Nc3ncc4cc5n(c4n3)C3(CCCCC3)CNC5=O)nc2)CC1 [formula [3]] | remarkably improved inhibition

System: CSCs (3D tumor sphere formation)
Test: not given
Conditions: mitochondrial inhibitors; background statement; cited from earlier work

SMILES | 3D tumor sphere formation
Cc1n[nH]c(C)c1Cc1sc2c(c1C(=O)N1C[C@H](O)CO1)c(=O)n(C)c(=O)n2CC(C)C [AR-C155858] | successfully blocked
O=C(/C=C/c1ccc(O)c(O)c1)OCCc1ccccc1 [CAPE] | successfully blocked
CCCCC[C@H](CC(=O)NO)C(=O)N[C@H](C(=O)N1CCC[C@H]1CO)C(C)C [actinonin] | successfully blocked
CC[C@H]1OC(=O)[C@H](C)[C@@H](O[C@H]2C[C@@](C)(OC)[C@@H](O)[C@H](C)O2)[C@H](C)[C@@H](O[C@@H]2O[C@H](C)C[C@H](N(C)C)[C@H]2O)[C@](C)(O)C[C@@H](C)CN(C)[C@H](C)[C@@H](O)[C@]1(C)O [azithromycin] | successfully blocked
COc1nc2ccc(Br)cc2cc1[C@@H](c1ccccc1)[C@@](O)(CCN(C)C)c1cccc2ccccc12 [bedaquiline] | successfully blocked
COc1ccc2cc3[n+](cc2c1OC)CCc1cc2c(cc1-3)OCO2 [berberine] | successfully blocked
COc1ccc([C@@H]2CC(=O)c3c(O)cc(O[C@@H]4O[C@H](COC(=O)CC(C)(O)CC(=O)O)[C@@H](O)[C@H](O)[C@H]4O[C@@H]4O[C@@H](C)[C@H](O)[C@@H](O)[C@H]4O)cc3O2)cc1O (stereo partly drawn) [brutieridin] | successfully blocked
C[C@@H]1O[C@@H](O[C@@H]2[C@@H](Oc3cc(O)c4c(c3)O[C@H](c3ccc(O)cc3)CC4=O)O[C@@H](COC(=O)C[C@@](C)(O)CC(=O)O)[C@H](O)[C@H]2O)[C@@H](O)[C@H](O)[C@H]1O [melitidin] | successfully blocked
CC[C@H]1/C=C/C=C/C[C@@H](C)[C@H](O)[C@@](C)(O)C(=O)[C@@H](C)[C@H](O)[C@@H](C)C(=O)[C@@H](C)[C@H](O)[C@@H](C)/C=C/C(=O)O[C@@H]2[C@H](C)[C@H](CC1)O[C@]1(CC[C@H](C)[C@H](C[C@@H](C)O)O1)[C@H]2C [oligomycin] | successfully blocked
CN(C)c1cc(NC(=O)CNC(C)(C)C)c(O)c2c1C[C@H]1C[C@H]3[C@H](N(C)C)C(O)=C(C(N)=O)C(=O)[C@@]3(O)C(O)=C1C2=O [tigecycline] | successfully blocked
